How the values were obtained:
[1] = tested on: Jurkat (clone E6-1) cells, NFAT luciferase reporter; test: Jurkat Reporter Assay (NFAT Luciferase); format: cell-based; conditions: Homo sapiens, anti-CD3 stimulation, 6 hr, read-out: Jurkat NFAT EC50
[2] = target: Recombinant human Cbl-b (aa 36-427) (Homo sapiens (Human), UniProt Q13191); test: Cbl-b Biochemical Assay (TR-FRET); conditions: read-out: TR-FRET hCbl-b IC50
Method in brief: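 IC50 from 4-parameter fit of % inhibition (DMSO max, reference-inhibitor min), duplicate ten-point series. Compound preincubated with 6 nM Cbl-b, then Src-Zap70 (1-2.5 nM)/0.5 mM ATP reaction 60 min RT; EDTA quench with labelled UBE2D2-Ub and streptavidin-terbium, 60 min, HTRF at 520 nm.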

[3] = target: Recombinant human c-Cbl (aa 47-435) (Homo sapiens (Human), UniProt P22681); test: c-Cbl Biochemical Assay (TR-FRET)
Recombinant human c-Cbl (aa 47-435), sequence (P22681 47-435): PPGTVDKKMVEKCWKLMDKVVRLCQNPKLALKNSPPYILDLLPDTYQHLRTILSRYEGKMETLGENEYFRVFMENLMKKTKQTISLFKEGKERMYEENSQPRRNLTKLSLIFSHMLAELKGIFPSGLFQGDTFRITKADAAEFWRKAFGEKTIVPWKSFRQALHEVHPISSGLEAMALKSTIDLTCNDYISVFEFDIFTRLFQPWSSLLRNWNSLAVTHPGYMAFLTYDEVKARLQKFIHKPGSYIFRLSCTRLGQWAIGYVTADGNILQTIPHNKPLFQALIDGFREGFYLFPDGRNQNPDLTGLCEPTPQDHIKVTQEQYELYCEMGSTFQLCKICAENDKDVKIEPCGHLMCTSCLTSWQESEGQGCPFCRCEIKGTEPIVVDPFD
Method in brief: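 TR-FRET binding of UBE2D2-Ub-Bodipy (100 nM) to biotinylated c-Cbl (aa 47-435, 6 nM) via Streptavidin-Tb, measured after c-Cbl activation by Src-Zap70 with 0.5 mM ATP (60-90 min RT, 30 min compound preincubation). Ten-point half-log dilutions, 1% DMSO; IC50 by 4-parameter fit of normalized inhibition.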

Recombinant human Cbl-b (aa 36-427), sequence (Q13191 36-427): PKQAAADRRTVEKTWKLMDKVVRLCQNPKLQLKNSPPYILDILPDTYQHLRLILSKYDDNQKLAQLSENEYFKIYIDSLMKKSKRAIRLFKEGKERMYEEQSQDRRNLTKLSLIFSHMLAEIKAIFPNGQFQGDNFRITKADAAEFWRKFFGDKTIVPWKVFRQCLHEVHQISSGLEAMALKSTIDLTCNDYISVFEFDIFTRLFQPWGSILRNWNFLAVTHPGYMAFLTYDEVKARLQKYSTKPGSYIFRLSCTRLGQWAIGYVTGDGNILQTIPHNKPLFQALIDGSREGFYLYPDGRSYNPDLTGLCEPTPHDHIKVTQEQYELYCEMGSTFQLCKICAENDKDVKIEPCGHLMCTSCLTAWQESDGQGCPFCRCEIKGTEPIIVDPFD

| Compound | EC50 [1] [µM] | IC50 [2] [µM] | IC50 [3] [µM] |
| --- | --- | --- | --- |
| CCNc1cc(-c2c(-c3nncn3C)cnn2C)cc(N2Cc3c(cc(CNCCOCCOCCOCCNC(=O)CCc4ccc5n4[B-](F)(F)[N+]4=C(C)C=C(C)C4=C5)cc3C(F)(F)F)C2=O)n1 [ADD-2, 4-{2-[(1-{2-[6-(Ethylamino)-4-[2-methyl-4-(4-methyl-1,2,4-triazol-3-yl)pyrazol-3-yl]pyridin-2-yl]-3-oxo-7-(trifluoromethyl)-1H-isoindol-5-yl}-5,8,11-trioxa-2-azatridecan-13-yl)carbamoyl]ethyl}-2,2-difluoro-10,12-dimethyl-1lambda5,3-diaza-2-boratricyclo[7.3.0.0^{3,7}]dodeca-1(12),4,6,8,10-pentaen-1-ylium-2-uide] | 10 to 50 | 10 to 50 |  |
| CCNc1cc(-c2ccccc2-c2nncn2C)cc(N2Cc3c(cc(CN4CC[C@@H](O)C4)cc3C(F)(F)F)C2=O)n1 [AT-1, (R)-2-(6-(Ethylamino)-4-(2-(4-methyl-4H-1,2,4-triazol-3-yl)phenyl)pyridin-2-yl)-6-((3-hydroxypyrrolidin-1-yl)methyl)-4-(trifluoromethyl)isoindolin-1-one] | 0.2 to 1 | ≤ 0.2 |  |
| Cn1cnnc1-c1ccccc1-c1cccc(N2Cc3c(cc(COC4CCOCC4)cc3C(F)(F)F)C2=O)c1 [BD-3, 2-(2′-(4-Methyl-4H-1,2,4-triazol-3-yl)-[1,1′-biphenyl]-3-yl)-6-(((tetrahydro-2H-pyran-4-yl)oxy)methyl)-4-(trifluoromethyl)isoindolin-1-one] | 1 to 10 | ≤ 0.2 |  |
| CCNc1cc(-c2cc(C#N)ccc2-c2nncn2C)cc(N2Cc3c(cccc3C(F)(F)F)C2=O)n1 [ADS-6, 3-[2-(Ethylamino)-6-[1-oxo-4-(trifluoromethyl)-3H-isoindol-2-yl]pyridin-4-yl]-4-(4-methyl-1,2,4-triazol-3-yl)benzonitrile] | 1 to 10 | ≤ 0.2 |  |
| CCNc1cc(-c2c(-c3nncn3C)cnn2C)cc(N2Cc3c(cc(COC4CCN(C)CC4)cc3C(F)(F)F)C2=O)n1 [ADA-2, 2-[6-(Ethylamino)-4-[2-methyl-4-(4-methyl-1,2,4-triazol-3-yl)pyrazol-3-yl]pyridin-2-yl]-6-{[(1-methylpiperidin-4-yl)oxy]methyl}-4-(trifluoromethyl)-3H-isoindol-1-one] | 1 to 10 |  |  |
| Cn1cnnc1-c1cc(C#N)ccc1-c1cc(C2CC2)nc(N2Cc3ccc(COCC4CCCC4)cc3C2=O)c1 [AIS-2, 4-(2-{6-[(cyclopentylmethoxy)methyl]-1-oxo-3H-isoindol-2-yl}-6-cyclopropylpyridin-4-yl)-3-(4-methyl-1,2,4-triazol-3-yl)benzonitrile] |  | ≤ 0.2 | ≤ 0.2 |
| C[C@@H](NCc1ccc2c(c1)C(=O)N(c1cc(-c3ccc(C#N)cc3-c3nncn3C)cc(C3CC3)n1)C2)C1COC1 [ANJ-2, (R)-4-(2-Cyclopropyl-6-(6-(((1-(oxetan-3-yl)ethyl)amino)methyl)-1-oxoisoindolin-2-yl)pyridin-4-yl)-3-(4-methyl-4H-1,2,4-triazol-3-yl)benzonitrile] |  | ≤ 0.2 | ≤ 0.2 |
| CN(Cc1ccc2c(c1)C(=O)N(c1cc(-c3ccc(C#N)cc3-c3nncn3C)cc(C3CC3)n1)C2)CC1CCCC1 [AJY-1, 4-[2-(6-{1[(Cyclopentylmethyl)(methyl)amino]methyl}-1-oxo-3H-isoindol-2-yl)-6-cyclopropylpyridin-4-yl]-3-(4-methyl-1,2,4-triazol-3-yl)benzonitrile] |  | ≤ 0.2 | ≤ 0.2 |
| CCNc1cnc(N2Cc3c(cc(CO)cc3C(F)(F)F)C2=O)cc1-c1ccc(F)cc1-c1nncn1C [AHN-9, 2-(5-(Ethylamino)-4-(4-fluoro-2-(4-methyl-4H-1,2,4-triazol-3-yl)phenyl)pyridin-2-yl)-6-(hydroxymethyl)-4-(trifluoromethyl)isoindolin-1-one] |  | 10 to 50 | 10 to 50 |
